This test concerns iodoacetic acid (MIA)-induced SD rat knee osteoarthritis model. The experiment in a line: Iodoacetic acid (MIA)-induced SD rat knee osteoarthritis model. It counts as in vivo, SD rats. The following applies: 30 mg/kg orally once a day from Day 7 to Day 42; compared with model blank control group; 21 days to 42 days after modeling. On the procedure:
Purpose: Evaluate the efficacy of MCC950 (Positive reference compound) and compound 111 of the present disclosure on iodoacetic acid (MIA)-induced SD rat knee osteoarthritis model.
Experimental materials: Experimental male SD rats, 4 weeks old.
Model induction began after the experimental animals were adapted to the animal environment for 7 days. Day 0, the rats were anesthetized, the hair around the left knee joint was removed, and the skin was disinfected. The left leg was flexed 90° to expose the patellar platform. The depression in the middle of the platform was touched by hand to find the femoral condyle, patella and ligament. The syringe needle was inserted from the bottom of the patella on both sides of the patellar ligament to the direction of the femoral condyle. When a clear sense of empty space was felt, 50 μL of iodoacetic acid solution was injected. Day 7 Grouping was performed according to the width of the knee joint on the induced side. The groups were: normal control group (healthy control without modeling, 5% DMSO+10% Solutol+85% Saline), model blank control group (5% DMSO+10% Solutol+85% Saline), MCC950 30 mg/kg, and compound 111 of the present disclosure 30 mg/kg. Starting from Day 7, the normal control group and the model blank control group were given the solvent (5% DMSO+10% Solutol+85% Saline) orally once a day, and the other groups were given the corresponding compounds orally once a day until the end of the administration on Day 42. The knee joint width and body weight of the rats were measured once on Day 7, 14, 21, 28, 35, and 42.

The structures appear in SMILES notation.

As for `CC(=O)N1CCOC[C@H]1CNc1nc2nc(-c3c(C)cc(C(F)(F)F)cc3O)ccc2o1` [Compound 111], the “widening of the knee joints (knee joint width)” value was “could significantly inhibit the widening of the knee joints”.

The record behind these values is patent US20260234150A1, “COMPOUND FOR INHIBITING NLRP3, PREPARATION METHOD, AND USE” (DOVETREE MEDICINES UNUS, INC., priority 2023, published 2026).
